Legend:
PA (FluB) = type: binding, influenza B virus
PA (FluA) = type: binding, influenza A virus

Sequence | IC50 (PA (FluB)) [nM] | IC50 (PA (FluA)) [nM] | competition for binding to FluB PA (PA (FluB)) | competition for binding to FluA PA (PA (FluA))
MDVNPTFLFLKVPAQ [PB11-15AL7F, ------F--------] | > 3000 |  |  | 
MNINPTLLFLKVPIQ [PB11-15AD2N,V3I,L14I, -NI----------I-] | > 3000 |  |  | 
MDVNPFLLFLKVPAQ [PB11-15AT6F] | 750 | 2.84 |  | 
MDVNPYFLFLKVPAQ [PB11-15AT6Y,L7F] | 345 | 7.51 | also to FluB PA, albeit with less affinity than PB11-15B | competed for binding to FluA PA
MDVNPHLLFLKVPAQ [PB11-15AT6H, -----H---------] | > 3000 |  |  | 
MDVNPYLLFLKVPAQ [PB11-15AT6Y] | 107 | 21.6 | binding to FluB PA increased | decreased binding of FluA PA compared to the double mutant, yet binding was still better than with wild type peptide
MDVNPWLLFLKVPAQ [PB11-15AT6W] | 628 | 3.4 |  | 
MDVNPTLLFIDVPAQ [PB11-15AL10I,K11D, ---------ID----] | > 3000 |  |  | 
MNINPTLLFLKVPAQ [PB11-15AD2N,V3I, -NI------------] | > 3000 |  |  | 
MDVNPTLLFLKVPAQ [PB11-15A, reference compound] | > 3000 |  | not FluB PA binding | 
MNINPYFLFIDVPIQ [PB11-15B, -NI--YF--ID--I-, reference compound] | 45 | > 3000 | blocked FluB PA | not FluA PA binding
MDVNPCLLFLKVPAQ [PB11-15AT6C, -----C---------] | > 3000 | 43.6 |  | 

From patent US20120129764A1 (priority 2009, published 2012)
